Legend:
Type in all cases: cell-based
GABAA α2β3γ2 = target: T1, GABAA α2β3γ2 (Homo sapiens, UniProt P18507+P28472+P47869); assay: FLIPR functional assay, HEK 293 cells (agonist/PAM/antagonist); settings: top concentration 1 mM, read-out: EC50, functional agonist receptor assay
T1 construct: host or cells: HEK 293 (stably expressing)
Protocol: (§1) Functional assays of all GABAA, NMDA (GluN2A-GluN2D) and AMPA (GluA2) receptor subunits were performed by SB Drug Discovery as a part of their CNS discovery panel using FLIPR technology. Briefly, receptor-expressing HEK 293 cell lines were incubated in a red membrane potential dye in HEPES:HBSS pH 7.4 buffer and the fluorescence (λex: 488, λex: 510-570) was monitored over time as the test compounds and/or reference compounds were added to the solution. In agonist assay, only test compounds were added. In positive allosteric modulator assay, cells were preincubated with test compounds and then low concentration (approximately EC20) of an appropriate agonist was added. In antagonist assay, cells were preincubated with test compounds and then high concentration (approximately EC80) of an appropriate agonist was added. For GABAA assays, GABA was used as the agonist, picrotoxin was used as the reference antagonist and allopregnanolone was used as the reference positive allosteric modulator (PAM). For NMDA assays, a mixture of glutamate, glycine and CaCl2 was used as the agonist, MK801 was the reference antagonist and pregnenolone sulfate or GNE 9278 were used as reference PAMs. For AMPA assays, glutamate was used as the agonist, CNQX was the reference antagonist and cyclothiazide was used as the reference PAM. All compounds were tested at 7 concentration points in triplicate and EC50/IC50 was determined where applicable. Functional GABAB assay was performed by Eurofins Discovery (Cerep) using Ca^2+-dependent fluorimetry in RBL cells expressing human GABAB (B1/B2) receptor. All compounds were tested at a single concentration of 100 uM in triplicate.
(§2) All receptor assays were performed exactly as described in Example 1. Functional assays of all GABAA, NMDA (GluN2A-GluN2D) and AMPA (GluA2) receptor subunits were performed by SB Drug Discovery as a part of their CNS discovery panel using FLIPR technology. All compounds were tested at 7 concentrations in triplicate and EC50/IC50 was determined where applicable. Functional GABAB assay was performed by Eurofins Discovery (Cerep) using Ca^2+-dependent fluorimetry in RBL cells expressing human GABAB (B1/B2) receptor. All compounds were tested at a single concentration of 100 uM in triplicate. Nonspecific AMPA, kainate and NMDA binding assays were performed by Eurofins Discovery (Cerep) using rat cerebral cortex membranes and radiolabeled [^3H]AMPA, [^3H]kainic acid and [^3H]CGP 39653, respectively. All compounds were tested at a single concentration of 100 uM in triplicate. mGluR1, mGluR2, mGluR5 and GABAB binding assays were performed by Eurofins Discovery. All compounds were tested at a single concentration of 100 uM in triplicate.

GABAA α4β1γ2 = target: T2, GABAA α4β1γ2 (Homo sapiens, UniProt P18505+P18507+P48169); assay: as above; settings: top concentration 1 mM, read-out: EC50, functional agonist receptor assay
T2 construct: host or cells: HEK 293 (stably expressing)
T2 sequence (P48169 36-554): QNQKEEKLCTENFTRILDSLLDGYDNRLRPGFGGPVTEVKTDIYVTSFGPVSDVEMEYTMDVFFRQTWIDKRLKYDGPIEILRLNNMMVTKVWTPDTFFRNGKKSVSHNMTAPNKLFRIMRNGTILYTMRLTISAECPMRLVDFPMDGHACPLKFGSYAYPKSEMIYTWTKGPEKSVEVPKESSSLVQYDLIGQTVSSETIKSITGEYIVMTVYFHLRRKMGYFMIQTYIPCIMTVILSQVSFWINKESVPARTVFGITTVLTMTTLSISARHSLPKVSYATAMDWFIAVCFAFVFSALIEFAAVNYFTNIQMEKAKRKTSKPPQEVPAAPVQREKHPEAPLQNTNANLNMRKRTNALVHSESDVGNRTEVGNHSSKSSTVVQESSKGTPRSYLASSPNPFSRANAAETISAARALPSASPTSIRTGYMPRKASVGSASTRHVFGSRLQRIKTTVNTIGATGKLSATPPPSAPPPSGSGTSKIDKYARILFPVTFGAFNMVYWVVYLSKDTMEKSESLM
T2 sequence (P18505 26-474): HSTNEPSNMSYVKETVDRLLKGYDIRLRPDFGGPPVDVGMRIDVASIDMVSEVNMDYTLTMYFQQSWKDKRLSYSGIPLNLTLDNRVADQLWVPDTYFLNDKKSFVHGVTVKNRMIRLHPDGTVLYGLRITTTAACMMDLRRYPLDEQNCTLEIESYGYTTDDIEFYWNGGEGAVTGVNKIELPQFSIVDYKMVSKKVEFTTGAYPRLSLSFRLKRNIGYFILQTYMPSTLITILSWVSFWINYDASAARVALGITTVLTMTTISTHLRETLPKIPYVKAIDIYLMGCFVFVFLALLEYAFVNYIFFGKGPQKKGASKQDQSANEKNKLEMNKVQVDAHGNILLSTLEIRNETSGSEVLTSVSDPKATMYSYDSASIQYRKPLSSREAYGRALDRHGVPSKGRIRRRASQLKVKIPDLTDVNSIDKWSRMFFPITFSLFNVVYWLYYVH
T2 sequence (P18507 40-475): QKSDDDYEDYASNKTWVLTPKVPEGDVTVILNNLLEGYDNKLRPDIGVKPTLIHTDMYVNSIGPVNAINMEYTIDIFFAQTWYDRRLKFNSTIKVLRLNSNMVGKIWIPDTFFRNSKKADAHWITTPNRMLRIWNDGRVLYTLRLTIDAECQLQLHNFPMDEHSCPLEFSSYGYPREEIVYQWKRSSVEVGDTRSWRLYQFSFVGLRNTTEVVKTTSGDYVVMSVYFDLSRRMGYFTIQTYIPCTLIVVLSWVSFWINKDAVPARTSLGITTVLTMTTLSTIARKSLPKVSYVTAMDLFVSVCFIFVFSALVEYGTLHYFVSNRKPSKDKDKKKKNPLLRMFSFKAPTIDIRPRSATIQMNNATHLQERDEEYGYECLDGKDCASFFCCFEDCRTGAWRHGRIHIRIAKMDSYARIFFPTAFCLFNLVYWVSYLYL
Protocol: as §1, §2

GABAA α6β3γ2 = GABAA α6β3γ2 (Homo sapiens, UniProt P28472+Q16445); assay: as above; settings: top concentration 1 mM, read-out: EC50, functional agonist receptor assay
Sequence of GABAA α6β3γ2 (Q16445 20-453): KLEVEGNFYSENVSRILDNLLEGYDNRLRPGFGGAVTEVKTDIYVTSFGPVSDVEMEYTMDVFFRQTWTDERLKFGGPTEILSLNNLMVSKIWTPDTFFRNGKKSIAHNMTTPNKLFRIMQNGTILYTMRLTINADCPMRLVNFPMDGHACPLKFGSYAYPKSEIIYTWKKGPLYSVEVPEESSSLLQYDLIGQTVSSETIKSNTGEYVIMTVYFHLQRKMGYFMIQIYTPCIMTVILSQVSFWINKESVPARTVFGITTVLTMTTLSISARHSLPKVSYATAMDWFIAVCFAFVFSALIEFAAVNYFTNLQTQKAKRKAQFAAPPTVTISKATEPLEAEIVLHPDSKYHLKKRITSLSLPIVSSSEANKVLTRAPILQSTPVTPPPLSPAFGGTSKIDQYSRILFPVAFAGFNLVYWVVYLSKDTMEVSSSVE
Sequence of GABAA α6β3γ2 (P28472 26-473): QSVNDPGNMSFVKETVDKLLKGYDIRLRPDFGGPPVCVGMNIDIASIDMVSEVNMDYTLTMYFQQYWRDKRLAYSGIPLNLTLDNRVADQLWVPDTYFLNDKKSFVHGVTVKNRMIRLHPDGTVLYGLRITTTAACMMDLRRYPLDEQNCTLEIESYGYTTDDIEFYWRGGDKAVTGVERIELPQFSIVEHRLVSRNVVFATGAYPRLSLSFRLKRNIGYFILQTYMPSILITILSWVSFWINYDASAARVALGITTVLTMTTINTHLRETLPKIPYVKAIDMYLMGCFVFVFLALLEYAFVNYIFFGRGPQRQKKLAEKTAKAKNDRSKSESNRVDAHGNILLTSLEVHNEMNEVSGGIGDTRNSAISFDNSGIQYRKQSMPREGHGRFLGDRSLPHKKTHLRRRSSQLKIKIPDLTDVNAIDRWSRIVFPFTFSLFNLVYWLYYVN
Sequence of GABAA α6β3γ2 (P18507 40-475 partner): as the sequence (P18507 40-475) above
Protocol: as §1, §2

GABAA α4β2γ2 = target: T3, GABAA α4β2γ2 (Homo sapiens, UniProt P18507+P47870+P48169); assay: as above; settings: top concentration 1 mM, read-out: EC50, functional agonist receptor assay
T3 construct: host or cells: HEK 293 (stably expressing)
T3 sequence (P48169 36-554): as the sequence (P48169 36-554) above
T3 sequence (P47870 25-512 limits assumed): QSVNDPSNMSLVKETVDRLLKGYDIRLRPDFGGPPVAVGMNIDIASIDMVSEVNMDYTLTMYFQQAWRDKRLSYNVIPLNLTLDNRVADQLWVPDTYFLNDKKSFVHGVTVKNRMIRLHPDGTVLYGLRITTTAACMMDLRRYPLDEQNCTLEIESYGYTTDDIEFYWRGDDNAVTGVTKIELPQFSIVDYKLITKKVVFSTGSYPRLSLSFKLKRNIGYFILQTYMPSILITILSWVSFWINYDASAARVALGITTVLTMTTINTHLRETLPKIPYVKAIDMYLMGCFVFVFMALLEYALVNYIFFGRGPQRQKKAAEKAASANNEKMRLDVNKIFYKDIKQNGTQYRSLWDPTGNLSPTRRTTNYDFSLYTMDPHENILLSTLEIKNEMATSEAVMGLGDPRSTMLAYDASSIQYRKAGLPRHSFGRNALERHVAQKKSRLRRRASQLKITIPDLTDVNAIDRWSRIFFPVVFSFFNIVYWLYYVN
T3 sequence (P18507 40-475): as the sequence (P18507 40-475) above
Protocol: as §1, §2

GABAA α3β2γ2 = target: T4, GABAA α3β2γ2 (Homo sapiens, UniProt P18507+P34903+P47870); assay: as above; settings: top concentration 1 mM, read-out: EC50, functional agonist receptor assay
T4 construct: host or cells: HEK 293 (stably expressing)
T4 sequence (P34903 29-492): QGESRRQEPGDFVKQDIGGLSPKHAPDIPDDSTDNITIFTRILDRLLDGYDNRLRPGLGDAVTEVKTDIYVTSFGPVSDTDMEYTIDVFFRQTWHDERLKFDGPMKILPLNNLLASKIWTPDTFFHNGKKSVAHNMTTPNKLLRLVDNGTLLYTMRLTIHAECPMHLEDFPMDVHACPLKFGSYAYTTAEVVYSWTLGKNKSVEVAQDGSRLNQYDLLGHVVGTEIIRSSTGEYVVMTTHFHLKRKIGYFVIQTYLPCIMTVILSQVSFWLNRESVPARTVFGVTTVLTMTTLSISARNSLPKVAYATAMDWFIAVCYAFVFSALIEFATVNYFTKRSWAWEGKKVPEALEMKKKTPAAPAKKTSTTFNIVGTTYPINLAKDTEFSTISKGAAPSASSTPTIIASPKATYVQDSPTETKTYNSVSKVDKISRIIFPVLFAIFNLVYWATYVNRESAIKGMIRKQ
T4 sequence (P47870 25-512 limits assumed): as the sequence (P47870 25-512 limits assumed) above
T4 sequence (P18507 40-475): as the sequence (P18507 40-475) above
Protocol: as §1, §2

GABAA α4β3γ2 = target: T5, GABAA α4β3γ2 (Homo sapiens, UniProt P18507+P28472+P48169); assay: as above; settings: top concentration 1 mM, read-out: EC50, functional agonist receptor assay
T5 construct: host or cells: HEK 293 (stably expressing)
T5 sequence (P48169 36-554): as the sequence (P48169 36-554) above
T5 sequence (P28472 26-473): as the sequence (P28472 26-473) above
T5 sequence (P18507 40-475): as the sequence (P18507 40-475) above
Protocol: as §1, §2

GABAA α3β1γ2 = target: T6, GABAA α3β1γ2 (Homo sapiens, UniProt P18505+P18507+P34903); assay: as above; settings: top concentration 1 mM, read-out: EC50, functional agonist receptor assay
T6 construct: host or cells: HEK 293 (stably expressing)
T6 sequence (P34903 29-492): as the sequence (P34903 29-492) above
T6 sequence (P18505 26-474): as the sequence (P18505 26-474) above
T6 sequence (P18507 40-475): as the sequence (P18507 40-475) above
Protocol: as §1, §2

[1] = test system: mouse cerebral synaptosomes; assay: Synaptosomal neurotransmitter uptake assay; settings: 10 μM substrate; for transport into synaptosomes: 37° C.
Protocol: To each tube, 5 μL of a test compound solution (final concentration 10 μM) in Buffer KRP or Buffer KRP alone were added. Samples were incubated at 4° C. or 37° C. for 1, 10, or 30 min and then immediately centrifuged and washed twice by resuspension-centrifugation with Buffer S (0.5 mL). Resulting pellets were resuspended in 170 μL of 0.1% aqueous formic acid and mixed with 330 μL of ACN.
96-well plate experiments: 250 μL aliquots of the synaptosome suspension were transferred to two 0.8-mL 96 well plates, one on ice (0° C. samples only) and one in a thermoblock (37° C. samples only), and equilibrated for 10 min. 5 μL of a test compound (0.5 mM; final concentration: 10 μM) in Buffer KRP or Buffer KRP blank were added 10, 20 or 30 min before the incubation termination. “0 min” samples were prepared by placing the test compound solution in a separate pre-chilled V-shape bottom 2-mL 96 well plate; at the end of incubation 200 μL aliquots of all samples were transferred to the 2-mL 96 well plate and centrifuged (2,500 g for 15 min at 4° C.) immediately. The resulting pellets were rinsed with Buffer KRP, followed by centrifugation, twice, then resuspended in 200 μL of 60% ACN containing 2.5 μM Glu-d5 as internal standard and stored at −80° C. until analysis.
Synaptosome uptake and high potassium-induced release assays were performed as described in Example 1. Uptake assays used 250 μL aliquots of the synaptosome suspension transferred to a pre-chilled 0.8 mL 96 well plate. 5 μL of a test compound solution (0.5 mM; final concentration: 10 μM to compare directly to our previous work was added to each well and incubated at 0° C. or 37° C. After 10, 20 or 30 min, samples were chilled on ice and immediately sedimented (2,500 g for 15 min at 4° C.) and washed with Buffer S (0.5 mL, ×2). Resulting pellets were resuspended in 200 μL of 60% ACN containing 5 μM GABA-d6 and stored at −80° C. until analysis. Potassium-induced release assay used 500 μL aliquots of the synaptosome suspension transferred to pre-chilled microcentrifuge tubes. 2.5 μL of a test compound solution (20 mM; final concentration: 100 μM) in Buffer KRP was added to each tube and incubated for 15 min at 37° C., briefly chilled on ice, and then immediately sedimented (8,000 g for 4 min at 4° C.) and washed with Buffer KRP, followed by centrifugation, twice. The resulting pellets were resuspended in 500 μL of Buffer KRP or Buffer K-KRP and incubated for 5, 10 or 15 min at 37° C., sedimented (8,000 g for 4 min at 4° C.), and washed with Buffer KRP. Resulting pellets were resuspended in 400 μL of 60% ACN containing 2.5 μM GABA-d6 as internal standard and stored at −80° C. until analysis.

T1 sequence (P47869 29-451): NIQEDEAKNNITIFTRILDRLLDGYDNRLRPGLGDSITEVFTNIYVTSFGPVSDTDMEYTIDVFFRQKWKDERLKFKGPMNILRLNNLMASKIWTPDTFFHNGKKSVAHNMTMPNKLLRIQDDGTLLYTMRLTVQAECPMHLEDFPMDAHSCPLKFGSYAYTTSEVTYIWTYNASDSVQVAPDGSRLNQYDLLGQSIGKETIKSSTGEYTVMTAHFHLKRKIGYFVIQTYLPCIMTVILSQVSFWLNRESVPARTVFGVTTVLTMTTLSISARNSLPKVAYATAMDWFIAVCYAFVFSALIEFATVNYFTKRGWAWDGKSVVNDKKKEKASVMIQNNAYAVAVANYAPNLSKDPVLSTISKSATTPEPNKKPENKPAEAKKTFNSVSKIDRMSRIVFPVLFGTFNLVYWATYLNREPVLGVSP
T1 sequence (P28472 26-473): as the sequence (P28472 26-473) above
T1 sequence (P18507 40-475): as the sequence (P18507 40-475) above

For `C[C@](N)(CCC(=O)O)C(=O)O` [(S)-2MeGlu, (S)-2-methylglutamic acid], the EC50 (GABAA α2β3γ2) was 342 µM, the EC50 (GABAA α4β1γ2) was 704 µM and the EC50 (GABAA α6β3γ2) was 998 µM. The EC50 (GABAA α4β2γ2) was 1020 µM, the EC50 (GABAA α3β2γ2) was 961 µM and the EC50 (GABAA α4β3γ2) was over 1000 µM. For the same compound, the EC50 (GABAA α3β1γ2) was 782 µM, the transport into synaptosomes [1] was “transported into synaptosomes” and the “synaptosomal uptake, faster than the R enantiomer” value ([1]; temperature-dependent uptake) was “approximately 3 fold”.

Work on `C[C@@](N)(CCC(=O)O)C(=O)O` [(R)-2MeGlu, (R)-2-methylglutamic acid] yielded an EC50 (GABAA α2β3γ2) of 622 µM, an EC50 (GABAA α4β1γ2) of 870 µM and an EC50 (GABAA α6β3γ2) of over 1000 µM. The EC50 (GABAA α4β2γ2) was 1250 µM, the EC50 (GABAA α3β2γ2) was 1040 µM and the EC50 (GABAA α4β3γ2) was over 1000 µM. The EC50 (GABAA α3β1γ2) was 742 µM and the transport into synaptosomes [1] was “transported into synaptosomes”.

Reference: US12589087B2, “Enantiomer selective action on neurotransmission” (The Board of Trustees of the Leland Stanford Junior …, priority 2021, dated 2026)
